US5874442A, “Tricyclic amides useful for inhibition of G-protein function and for treatment of proliferative disease” (Schering-Plough Corporation, priority 1996, dated 1999)
pIC50: −log10 of the molar value.

How the values were obtained:
[1] = test system: HTB 177; assay: Soft agar assay; assay type: cell-based; details: Homo sapiens; HTB 177 (NSCLC) K ras mutation; read-out: IC50, inhibition of human tumor cell growth, soft agar
Description: (§1) Anchorage-independent growth is a characteristic of tumorigenic cell lines. Human tumor cells are suspended in growth medium containing 0.3% agarose and an indicated concentration of a farnesyl transferase inhibitor. The solution is overlayed onto growth medium solidified with 0.6% agarose containing the same concentration of farnesyl transferase inhibitor as the top layer. […] After incubation, the colonies are stained by overlaying the agar with a solution of MTT (3-[4,5-dimethylthiazol-2-yl]-2,5-diphenyltetrazolium bromide, Thiazolyl blue) (1 mg/mL in PBS). Colonies are counted and the IC50's determined.

[2] = test system: A549; assay: Soft agar assay; assay type: cell-based; details: Homo sapiens; A549 (lung) K ras mutation; read-out: IC50, inhibition of human tumor cell growth, soft agar
Description: as §1

[3] = test system: HTB 175; assay: Soft agar assay; assay type: cell-based; details: Homo sapiens; HTB 175 (SCLC) ras mut. not detected; read-out: IC50, inhibition of human tumor cell growth, soft agar
Description: as §1

[4] = test system: K ras NIH 3T3; assay: Soft agar assay; assay type: cell-based; details: Mus musculus, NIH3T3, read-out: IC50, inhibition of human tumor cell growth, soft agar
[5] = test system: DLD-1-BAG human colon carcinoma cells; assay: Cell mat assay, DLD-1-BAG tumor cells; assay type: cell-based; details: Homo sapiens, DLD-1, 336 h, read-out: Tumor (DLD-1) IC50
Description: (§2) Compound-induced colony inhibition was assayed by addition of serial dilutions of compound directly to the growth medium 24 h after tumor cell planting, and incubating cells for an additional 14 d to allow colony formation. Assays were terminated by rinsing monolayers twice with phosphate-buffered saline (PBS), fixing the monolayers with a 1% glutaraldehyde solution in PBS, then visualizing tumor cells by staining with X-Gal (Price, J., et al., Lineage analysis in the vertebrate nervous system by retrovirus-mediated gene transfer, Proc. Natl. Acad. Sci.84, 156-160(1987)). […] Both IC50 values were obtained by determining the density of tumor cells and mat cells by visual inspection and enumeration of cells per colony and the number of colonies under the microscope.
Additional assays were carried out by following essentially the same procedure as described above, but with substitution of alternative indicator tumor cell lines in place of the T24-BAG cells. The assays were conducted using either DLD-1-BAG human colon carcinoma cells expressing as activated K-ras gene or SW620-BAG human colon carcinoma cells expressing an activated K-ras gene.

[6] = test system: BT474 (breast); assay: Soft agar assay; assay type: cell-based; details: Homo sapiens, BT-474, read-out: IC50, inhibition of human tumor cell growth, soft agar
Description: (§3) Anchorage-independent growth is a characteristic of tumorigenic cell lines. Human tumor cells are suspended in growth medium containing 0.3% agarose and an indicated concentration of a farnesyl transferase inhibitor. The solution is overlayed onto growth medium solidified with 0.6% agarose containing the same concentration of farnesyl transferase inhibitor as the top layer. After the top layer is solidified, plates are incubated for 10-16 days at 37° C. under 5% CO2 to allow colony outgrowth. After incubation, the colonies are stained by overlaying the agar with a solution of MTT (3-[4,5-dimethylthiazol-2-yl]-2,5-diphenyltetrazolium bromide, Thiazolyl blue) (1 mg/mL in PBS). Colonies are counted and the IC50's determined.

[7] = test system: MCF-7; assay: Soft agar assay; assay type: cell-based; details: Homo sapiens, MCF7; MCF-7 (breast) ras mut. not detected; read-out: IC50, inhibition of human tumor cell growth, soft agar
Description: as §3

[8] = test system: HPAF II; assay: Soft agar assay; assay type: cell-based; details: Homo sapiens; HPAF II (pancreatic) K ras mutation; read-out: IC50, inhibition of human tumor cell growth, soft agar
Description: as §3

[9] = test system: HTB 119 (NCI H69); assay: Soft agar assay; assay type: cell-based; details: Homo sapiens; HTB 119 (NCI H69) (SCLC); read-out: IC50, inhibition of human tumor cell growth, soft agar
Description: as §3

[10] = test system: DLD 1; assay: Soft agar assay; assay type: cell-based; details: Homo sapiens; DLD 1 (colon) K ras mutation; read-out: IC50, inhibition of human tumor cell growth, soft agar
Description: as §3

[11] = test system: Ras-CVLS processing in COS cells; assay: Cell-based COS cell assay: inhibition of Ras processing (Ras-CVLS); set-up: species or system monkey; details: Primates, COS, read-out: Inhibition of Ras Processing IC50, Table 3, COS cells
Description: Transient expression of val^12 -Ha-Ras-CVLS and […] -Ha-Ras-CVLL in COS monkey kidney cells: Effect of farnesyl protein transferase inhibitors on Ras processing and on disordered cell growth induced by transforming Ras.
COS monkey kidney cells were transfected by electroporation with the plasmid pSV-SPORT (Gibco/BRL) containing a cDNA insert encoding either Ras-CVLS or Ras-CVLL, leading to transient overexpression of a Ras substrate for either farnesyl protein transferase or geranylgeranyl protein transferase I, respectively (see above).
Following electroporation, cells were plated into 6-well tissue culture dishes containing 1.5 ml of Dulbecco's-modified Eagle's media (GIBCO, Inc.) supplemented with 10% fetal calf serum and the appropriate farnesyl protein transferase inhibitors. After 24 hours, media was removed and fresh media containing the appropriate drugs was re-added.
48 hours after electroporation cells were examined under the microscope to monitor disordered cell growth induced by transforming Ras. Cells expressing transforming Ras become more rounded and refractile and overgrow the monolayer, reminiscent of the transformed phenotype. Cells were then photographed, washed twice with 1 ml of cold phosphate-buffered saline (PBS) and removed from the dish by scraping with a rubber policeman into 1 ml of a buffer containing 25 mM Tris, pH 8.0; 1 mM ethylenediamine tetraacetic acid; 1 mM phenylmethylsulfonyl fluoride; […]; and 0.1 mM pepstatin. Cells were lysed by homogenization and cell debris was removed by centrifugation at 2000× g for 10 min.
Cellular protein was precipitated by addition of ice-cold trichloroacetic acid and redissolved in […] of SDS-electrophoresis sample buffer. […] Proteins resolved on the gels were electroblotted onto nitrocellulose membranes for immunodetection.
After washing, membranes were incubated for one hour at room temperature with a 1:5000 dilution of secondary antibody, rabbit anti-rat lgG conjugated to horseradish peroxidase, in PBS containing 1% fetal calf serum. The presence of processed and unprocessed Ras-CVLS or Ras-CVLL was detected using a colorimetric peroxidase reagent (4-chloro-1-naphthol) as described by the manufacturer (Bio-Rad).

[12] = test system: DLD-1 (human colon carcinoma cells); assay: In vivo anti-tumor studies, subcutaneous DLD-1 tumors in athymic nu/nu mice; set-up: species or system athymic nu/nu female mice; details: Mus musculus, DLD-1, po, […], read-out: Average % Tumor Inhibition
Description: Tumor bearing animals are selected and randomized when the tumors are established. Animals are treated with vehicle (β-cyclodextrin for i.p. or corn oil for p.o.) only or with a compound of the present invention in vehicle four times a day (QID) for 7 days per week for 4 weeks. The percent inhibition of tumor growth relative to vehicle controls is determined by tumor measurements.

[13] = test system: T24-BAG4 human bladder carcinoma cells expressing an activated H-ras gene; assay: Cell mat assay, T24-BAG4 tumor cells; assay type: cell-based; details: Homo sapiens, 336 h, read-out: Tumor (T-24) IC50
Description: as §2

SMILES: NC(=O)N1CCC(CC(=O)N2CCC([C@H]3c4ncc(Br)cc4CCc4cc(Cl)cc(Br)c43)CC2)CC1 [Example 10]
- pIC50 [1]: 7.40
- pIC50 [2]: 6.82
- pIC50 [3]: 6.60
- pIC50 [4]: 6.40
- pIC50 [5]: > 5.80
- pIC50 [6]: 6.00
- pIC50 [7]: > 6.22
- pIC50 [8]: > 6.30
- pIC50 [9]: 6.52
- pIC50 [10]: 5.60
- pIC50 [11]: > 7.60
- inhibition in vivo at 10 mg/kg [12]: 49%
- inhibition in vivo at 50 mg/kg [12]: 77%
- pIC50 [13]: > 5.80
